According to ChEMBL document CHEMBL1201862, “PubChem BioAssay data set” (2004):
Activity calls are given as the source filed them.

Assays:
[1] = target: Chaperone protein dnaK (Escherichia coli, UniProt C3TRK2); experiment: E. coli DnaK binders, calorimetric Kd – biophysical, isothermal titration calorimetry, beta-domain, full-length DnaK, orthogonal assay for DnaK modulator project, SAR follow-up (AID 1495)
[2] = target: Envelope glycoprotein gp160 (Human immunodeficiency virus 1, UniProt Q6QLK5); experiment: cell-free HIV fusion peptide-binding blockers – biochemical, uHTS, fluorescence dequenching, […] (AID 1986)
[3] = target: Induced myeloid leukemia cell differentiation protein Mcl-1 (Homo sapiens, UniProt Q07820); format: functional
[4] = viability loss in THP-1 monocytes – THP-1 cells, cytotoxicity control for Vif-APOBEC3G degradation inhibitor project, dose response (AID 1117359); format: functional; conditions: THP-1
[5] = test system: Vero; experiment: Vero cell viability after compound exposure – synthesized analogs, set II, cytotoxicity control for West Nile virus antiviral project, SAR follow-up (AID 2402); format: functional; conditions: Chlorocebus sabaeus
[6] = test system: Vero; experiment: host cell viability loss, Vero E6 – synthesized analogs, cytotoxicity control for West Nile virus antiviral project, SAR follow-up (AID 2244); format: functional; conditions: Chlorocebus sabaeus
[7] = non-PhoP GFP expression and growth suppression – purified and synthesized compounds, set 2, counter-screen for PhoP regulon inhibitor project, dose response (AID 2834); format: functional
[8] = reduction of Shn3 3'UTR-driven luciferase in osteoblasts – cell-based, Clone20 osteoblasts, firefly luciferase, cherry-picked, dose response (AID 624132); format: functional;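 also: firefly luciferase luminescence from reporter carrying the Shn3 3'UTR in osteoblasts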
[9] = loss of viability in HepG2 cells – cell-based, CellTiter-Glo, cherry-picked, cytotoxicity control for Shn3 inhibitor project, dose response (AID 624134); format: functional
[10] = non-specific 3'UTR reporter inhibition in Clone20-Shn3RL – cell-based, Renilla luciferase, cherry-picked, counter-screen for Shn3 inhibitor project, dose response (AID 624133); format: functional
[11] = target: Disintegrin and metalloproteinase domain-containing protein 17 (Homo sapiens, UniProt P78536); experiment: exosite inhibitors of ADAM17, dose response, biochemical (AID 743260)
[12] = inhibition of ADAM10 peptide cleavage – biochemical, FRET peptide substrate, recombinant human ADAM10, selectivity assay for ADAM17 exosite inhibitor project, dose response (AID 743259);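 also: ADAM10 enzyme cleaving a FRET peptide substrate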
[13] = test system: HEK293; experiment: Fluorescence-based counterscreen for potentiators or agonists of NPY-Y2: cell-based high-throughput dose response assay to identify inhibitors of cyclic nucleotide gated ion channel (CNGC) activity. In this assay, the parental HEK293 cell line transfected with a cyclic-nucleotide gated ion channel (CNGC)-based cAMP sensor is used to measure inhibition of isoproterenol-induced CNGC activity by test compound.; format: functional; conditions: Homo sapiens;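 also: stimulus is 1 µM isoproterenol at EC100 plus PDE inhibitor Ro 20-1724 at 25 µM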
[14] = target: T1, Neuropeptide Y receptor type 2 (Homo sapiens, UniProt P49146); experiment: Fluorescence-based cell-based high-throughput dose response assay for agonists of NPY-Y2. [Related pubchem assays: 1703 (Screening assay (CNGC inhibitors).), 1359 (Screening assay (NPY-Y2 potentiators or agonists).), 1304 (Screening assay (NPY-Y1 potentiators or agonists).), 1710 (Screening assay (NPY-Y2 agonists).), 1791 (Summary AID.)]; format: functional
T1 sequence (P49146 whole entry): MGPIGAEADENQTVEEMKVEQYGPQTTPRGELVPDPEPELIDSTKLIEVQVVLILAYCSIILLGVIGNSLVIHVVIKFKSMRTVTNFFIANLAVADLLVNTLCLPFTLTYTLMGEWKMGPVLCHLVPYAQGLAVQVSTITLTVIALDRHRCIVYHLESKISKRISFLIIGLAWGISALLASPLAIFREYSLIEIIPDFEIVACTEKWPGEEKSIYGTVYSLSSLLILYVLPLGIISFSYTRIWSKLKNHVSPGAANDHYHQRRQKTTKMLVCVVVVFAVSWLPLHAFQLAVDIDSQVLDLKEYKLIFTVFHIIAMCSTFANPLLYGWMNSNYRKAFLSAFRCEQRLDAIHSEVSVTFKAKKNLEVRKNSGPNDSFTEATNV

[15] = target: T2, Neuropeptide Y receptor type 1 (Homo sapiens, UniProt P25929); experiment: Fluorescence-based counterscreen for agonists of NPY-Y2: cell-based high-throughput dose response assay for agonists of NPY-Y1.; format: functional
T2 sequence (P25929 whole entry): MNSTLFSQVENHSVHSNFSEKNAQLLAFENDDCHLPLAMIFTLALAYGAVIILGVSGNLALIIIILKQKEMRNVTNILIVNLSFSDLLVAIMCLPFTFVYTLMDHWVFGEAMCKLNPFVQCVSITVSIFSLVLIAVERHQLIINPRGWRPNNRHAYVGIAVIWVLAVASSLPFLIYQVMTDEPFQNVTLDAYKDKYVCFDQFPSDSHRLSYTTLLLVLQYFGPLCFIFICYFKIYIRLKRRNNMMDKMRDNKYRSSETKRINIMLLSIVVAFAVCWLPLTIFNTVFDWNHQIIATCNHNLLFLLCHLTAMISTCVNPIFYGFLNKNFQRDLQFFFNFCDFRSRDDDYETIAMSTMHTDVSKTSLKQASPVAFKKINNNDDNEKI

[16] = target: Cyclin-dependent kinase 5/CDK5 activator 1 (Homo sapiens, UniProt Q00535); experiment: blockade of human CDK5 activity – biochemical, cherry-picked samples, set 2, dose response (AID 504545)
[17] = target: T3, Galanin receptor type 3 (Homo sapiens, UniProt O60755); experiment: Fluorescence-based cell-based primary high throughput dose response assay to identify antagonists of the Galanin Receptor 3 (GalR3).; format: functional
T3 sequence (O60755 whole entry): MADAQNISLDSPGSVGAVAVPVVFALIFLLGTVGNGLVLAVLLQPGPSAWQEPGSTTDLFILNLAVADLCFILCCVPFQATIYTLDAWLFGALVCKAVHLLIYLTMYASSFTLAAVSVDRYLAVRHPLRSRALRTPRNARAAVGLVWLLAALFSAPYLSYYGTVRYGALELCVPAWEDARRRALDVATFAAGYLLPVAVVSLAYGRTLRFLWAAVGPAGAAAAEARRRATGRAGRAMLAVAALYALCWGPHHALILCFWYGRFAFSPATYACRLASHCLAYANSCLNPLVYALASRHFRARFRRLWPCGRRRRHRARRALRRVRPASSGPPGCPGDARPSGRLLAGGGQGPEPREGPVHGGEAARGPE

[18] = cells; format: functional, cell-based; conditions: HEK-CNG
[19] = target: T4, Delta-type opioid receptor (Homo sapiens, UniProt P41143); experiment: HTS Image-Based Screen for Antagonists of the DOR Receptor. [Related pubchem assays (depositor defined):AID1777, AID1785, AID1786, AID2133]; format: functional
[20] = target: Mu-type opioid receptor (Homo sapiens, UniProt P35372); experiment: HTS Image-Based Screen for Agonists of the MOR Receptor. [Related pubchem assays (depositor defined):AID1777, AID1785, AID1786, AID2133]; format: functional;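 also: imaging of beta-arrestin GFP recruitment into spots after receptor activation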
[21] = target: T4, Delta-type opioid receptor; experiment: HTS Image-Based Screen for Agonists of the DOR Receptor. [Related pubchem assays (depositor defined):AID1777, AID1786, AID2133]; format: functional
[22] = target: T5, Kappa-type opioid receptor (Homo sapiens, UniProt P41145); format: functional
[23] = target: T5, Kappa-type opioid receptor; format: functional; remark: listed apart in the source
[24] = target: Eukaryotic translation initiation factor 4E (Mus musculus, UniProt P63073); experiment: blockers of eIF4G binding by eIF4E – biochemical, TR-FRET, dose response (AID 855); format: functional;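 also: potency for disrupting eIF4E binding to eIF4GI seen as loss of FRET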
[25] = target: G-protein coupled receptor 35 (Homo sapiens, UniProt Q9HC97); experiment: inhibition of zaprinast-stimulated GPR35 beta-arrestin translocation – imaging, U2OS, beta-arrestin-GFP, zaprinast agonist, primary screen (AID 2058); format: functional;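 also: antagonist potency meaning inhibition of agonist-induced arrestin redistribution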
[26] = target: T6, Microphthalmia-associated transcription factor (Homo sapiens, UniProt O75030); experiment: reducers of TRPM1 reporter luminescence, concentration series – cell-based, SK-MEL-5, cherry-picked, set 3, MITF inhibitor project, dose response (AID 493073); format: functional;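 also: SK-MEL-5 melanoma cells with luciferase driven by the MITF target TRPM1 promoter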
T6 sequence (O75030 whole entry): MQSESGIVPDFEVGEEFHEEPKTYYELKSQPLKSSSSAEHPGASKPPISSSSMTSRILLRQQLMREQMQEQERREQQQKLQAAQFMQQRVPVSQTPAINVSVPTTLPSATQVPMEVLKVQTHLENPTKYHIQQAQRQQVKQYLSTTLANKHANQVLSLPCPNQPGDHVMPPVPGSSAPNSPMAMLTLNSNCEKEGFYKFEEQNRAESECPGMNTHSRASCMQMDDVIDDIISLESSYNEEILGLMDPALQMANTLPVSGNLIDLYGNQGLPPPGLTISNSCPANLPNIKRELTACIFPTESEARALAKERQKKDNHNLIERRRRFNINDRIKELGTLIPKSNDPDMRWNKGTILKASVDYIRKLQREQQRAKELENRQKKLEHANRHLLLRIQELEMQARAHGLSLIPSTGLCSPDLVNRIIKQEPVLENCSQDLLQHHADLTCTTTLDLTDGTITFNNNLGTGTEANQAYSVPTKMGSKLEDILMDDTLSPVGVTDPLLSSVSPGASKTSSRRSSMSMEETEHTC

[27] = target: T7, DNA repair protein RAD52 homolog (Homo sapiens, UniProt P43351); format: functional, biochemical
T7 sequence (P43351 whole entry): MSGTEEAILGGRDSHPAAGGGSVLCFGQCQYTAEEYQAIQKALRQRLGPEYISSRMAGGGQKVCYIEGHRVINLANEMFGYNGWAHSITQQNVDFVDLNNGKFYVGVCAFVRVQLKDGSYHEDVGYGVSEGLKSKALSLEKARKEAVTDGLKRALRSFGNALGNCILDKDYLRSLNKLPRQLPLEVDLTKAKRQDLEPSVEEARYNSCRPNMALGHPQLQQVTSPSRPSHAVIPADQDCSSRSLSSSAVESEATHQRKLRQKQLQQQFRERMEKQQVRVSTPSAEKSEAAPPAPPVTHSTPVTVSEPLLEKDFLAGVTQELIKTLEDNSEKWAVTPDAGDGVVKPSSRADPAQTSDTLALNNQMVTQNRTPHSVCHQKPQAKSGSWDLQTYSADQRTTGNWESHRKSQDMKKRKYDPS

[28] = target: Acyl-homoserine lactone acylase PvdQ (Pseudomonas aeruginosa (strain LESB58), UniProt Q9I194); experiment: PvdQ acylase enzyme activity blockers – biochemical, fluorescence, plate reader and imaging, cherry-picks, dose response (AID 493231)
[29] = target: Voltage-gated N-type calcium channel alpha-1B subunit/Amyloid beta A4 precursor protein-binding family A member 1 (Homo sapiens, UniProt Q00975+Q02410); experiment: disruptors of Mint-PDZ/N-type channel peptide interaction – biochemical, HTRF, set 2, SAR follow-up (AID 434980); format: functional
[30] = Luminescence Cell Based Dose Confirmation HTS to Identify Activators of 5'UTR Stem-Loop Driven Alpha-Synuclein mRNA Translation in H4 Neuroglioblastoma Cells. [Related pubchem assays (depositor defined):AID1813, AID1829]; format: functional; conditions: Homo sapiens
[31] = target: T8, Small ubiquitin-related modifier 1 (Homo sapiens, UniProt P63165); experiment: SUMO1 protein interaction blockers, potency – biochemical, fluorescence polarization, uHTS hits, dose response (AID 624382); format: functional; conditions: read-out: IC50_Mean
[32] = target: T8, Small ubiquitin-related modifier 1; experiment: SUMO1 protein-protein binding blockers, potency – biochemical, FRET, dose response (AID 624383); format: functional; conditions: read-out: IC50_Mean
[33] = target: Melanin-concentrating hormone receptor 1 (Homo sapiens, UniProt Q99705); experiment: Late-stage fluorescence-based counterscreen for antagonists of the G-protein coupled receptor 7 (GPR7): cell-based dose response assay to identify antagonists of the melanin-concentrating hormone receptor 1 (MCHR1). [Related pubchem assays (depositor defined):AID1861, AID1880, AID1952, AID2148, AID2251, AID2257, AID485339]; format: functional;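 also: stimulated with 30 nM MCH peptide agonist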
Sequence of Melanin-concentrating hormone receptor 1 (Q99705 whole entry): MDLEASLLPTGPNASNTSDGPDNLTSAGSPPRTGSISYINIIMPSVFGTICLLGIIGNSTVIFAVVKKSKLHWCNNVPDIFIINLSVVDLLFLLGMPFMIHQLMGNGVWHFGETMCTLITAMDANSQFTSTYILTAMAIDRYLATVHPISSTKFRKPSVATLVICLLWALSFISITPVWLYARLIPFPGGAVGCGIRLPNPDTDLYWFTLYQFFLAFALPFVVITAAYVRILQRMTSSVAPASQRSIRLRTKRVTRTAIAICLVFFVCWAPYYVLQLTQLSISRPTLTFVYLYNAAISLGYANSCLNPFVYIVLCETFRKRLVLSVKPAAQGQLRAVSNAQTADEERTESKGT

T5 sequence (P41145 whole entry): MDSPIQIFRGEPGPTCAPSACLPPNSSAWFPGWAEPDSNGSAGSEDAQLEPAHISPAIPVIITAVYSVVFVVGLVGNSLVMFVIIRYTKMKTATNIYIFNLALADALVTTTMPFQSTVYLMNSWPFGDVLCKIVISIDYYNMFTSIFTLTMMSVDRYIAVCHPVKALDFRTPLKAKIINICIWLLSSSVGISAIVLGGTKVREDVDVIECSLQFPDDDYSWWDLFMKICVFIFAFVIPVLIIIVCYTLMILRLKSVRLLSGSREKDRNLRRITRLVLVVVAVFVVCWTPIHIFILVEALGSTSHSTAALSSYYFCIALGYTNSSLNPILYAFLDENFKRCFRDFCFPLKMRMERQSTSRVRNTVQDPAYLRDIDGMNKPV
T4 sequence (P41143 whole entry): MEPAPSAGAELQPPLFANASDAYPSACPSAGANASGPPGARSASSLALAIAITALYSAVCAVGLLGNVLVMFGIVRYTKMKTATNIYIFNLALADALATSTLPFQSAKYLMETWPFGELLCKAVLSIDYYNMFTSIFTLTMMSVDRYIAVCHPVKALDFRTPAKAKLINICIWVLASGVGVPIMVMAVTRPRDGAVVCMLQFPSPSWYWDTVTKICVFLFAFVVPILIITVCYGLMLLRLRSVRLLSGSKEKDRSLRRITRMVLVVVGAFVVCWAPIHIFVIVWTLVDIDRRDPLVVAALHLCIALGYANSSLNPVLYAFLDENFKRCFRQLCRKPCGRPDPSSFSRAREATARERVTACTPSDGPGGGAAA
T8 sequence (P63165 whole entry): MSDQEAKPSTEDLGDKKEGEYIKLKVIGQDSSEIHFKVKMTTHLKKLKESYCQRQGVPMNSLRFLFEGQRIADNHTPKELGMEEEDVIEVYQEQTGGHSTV
Sequence of Eukaryotic translation initiation factor 4E (P63073 whole entry): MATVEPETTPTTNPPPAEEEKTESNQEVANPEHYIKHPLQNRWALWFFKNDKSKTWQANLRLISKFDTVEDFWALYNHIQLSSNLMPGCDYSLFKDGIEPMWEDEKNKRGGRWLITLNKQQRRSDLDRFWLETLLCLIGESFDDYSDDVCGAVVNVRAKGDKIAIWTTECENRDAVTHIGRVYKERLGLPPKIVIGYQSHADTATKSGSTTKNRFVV
Sequence of Cyclin-dependent kinase 5/CDK5 activator 1 (Q00535 whole entry): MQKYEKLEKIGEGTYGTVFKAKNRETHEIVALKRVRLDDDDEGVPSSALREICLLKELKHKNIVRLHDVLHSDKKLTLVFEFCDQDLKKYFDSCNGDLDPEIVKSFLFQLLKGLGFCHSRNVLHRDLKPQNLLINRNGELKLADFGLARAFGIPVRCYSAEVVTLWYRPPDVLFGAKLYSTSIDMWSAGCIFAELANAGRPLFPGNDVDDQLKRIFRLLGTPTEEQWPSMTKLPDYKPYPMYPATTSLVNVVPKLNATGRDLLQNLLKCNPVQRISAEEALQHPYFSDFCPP
Sequence of Cyclin-dependent kinase 5/CDK5 activator 1 (Q15078 whole entry, further chain): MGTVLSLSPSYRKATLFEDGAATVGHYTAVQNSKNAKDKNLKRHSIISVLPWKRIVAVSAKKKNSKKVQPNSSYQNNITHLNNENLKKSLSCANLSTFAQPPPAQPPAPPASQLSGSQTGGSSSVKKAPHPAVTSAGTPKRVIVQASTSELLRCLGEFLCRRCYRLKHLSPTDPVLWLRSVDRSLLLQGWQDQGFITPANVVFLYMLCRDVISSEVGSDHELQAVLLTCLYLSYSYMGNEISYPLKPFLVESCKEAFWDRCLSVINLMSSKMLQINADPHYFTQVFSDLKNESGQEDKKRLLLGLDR
Sequence of G-protein coupled receptor 35 (Q9HC97 whole entry): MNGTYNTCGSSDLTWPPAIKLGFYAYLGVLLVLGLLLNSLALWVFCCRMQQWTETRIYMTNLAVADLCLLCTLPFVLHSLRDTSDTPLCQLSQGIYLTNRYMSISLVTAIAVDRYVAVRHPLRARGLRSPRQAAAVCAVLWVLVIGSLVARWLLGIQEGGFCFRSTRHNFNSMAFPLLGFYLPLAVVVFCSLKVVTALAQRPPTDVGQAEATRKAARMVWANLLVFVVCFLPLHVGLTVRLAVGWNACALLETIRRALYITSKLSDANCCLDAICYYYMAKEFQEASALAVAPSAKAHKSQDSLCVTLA
Sequence of Acyl-homoserine lactone acylase PvdQ (Q9I194 24-193 limits assumed): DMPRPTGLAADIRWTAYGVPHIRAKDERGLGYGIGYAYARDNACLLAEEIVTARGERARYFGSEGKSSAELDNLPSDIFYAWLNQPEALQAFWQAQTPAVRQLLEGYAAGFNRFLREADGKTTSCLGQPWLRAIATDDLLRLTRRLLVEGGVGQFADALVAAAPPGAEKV
Sequence of Acyl-homoserine lactone acylase PvdQ (Q9I194 217-762 limits assumed): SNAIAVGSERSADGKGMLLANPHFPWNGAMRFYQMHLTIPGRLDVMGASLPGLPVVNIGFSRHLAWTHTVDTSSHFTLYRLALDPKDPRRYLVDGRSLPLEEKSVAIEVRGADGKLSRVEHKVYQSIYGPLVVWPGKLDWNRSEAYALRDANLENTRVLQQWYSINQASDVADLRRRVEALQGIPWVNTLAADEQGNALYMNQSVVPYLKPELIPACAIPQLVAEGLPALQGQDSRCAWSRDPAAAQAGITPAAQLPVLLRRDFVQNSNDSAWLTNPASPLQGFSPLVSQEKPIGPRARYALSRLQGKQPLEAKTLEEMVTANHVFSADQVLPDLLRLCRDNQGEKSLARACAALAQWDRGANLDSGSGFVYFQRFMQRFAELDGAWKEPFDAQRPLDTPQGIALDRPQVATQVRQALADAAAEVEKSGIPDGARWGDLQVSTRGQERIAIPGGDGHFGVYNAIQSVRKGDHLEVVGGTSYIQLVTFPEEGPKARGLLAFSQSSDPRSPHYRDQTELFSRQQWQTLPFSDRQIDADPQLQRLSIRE
Sequence of Chaperone protein dnaK (C3TRK2 whole entry, the tested form may be a part): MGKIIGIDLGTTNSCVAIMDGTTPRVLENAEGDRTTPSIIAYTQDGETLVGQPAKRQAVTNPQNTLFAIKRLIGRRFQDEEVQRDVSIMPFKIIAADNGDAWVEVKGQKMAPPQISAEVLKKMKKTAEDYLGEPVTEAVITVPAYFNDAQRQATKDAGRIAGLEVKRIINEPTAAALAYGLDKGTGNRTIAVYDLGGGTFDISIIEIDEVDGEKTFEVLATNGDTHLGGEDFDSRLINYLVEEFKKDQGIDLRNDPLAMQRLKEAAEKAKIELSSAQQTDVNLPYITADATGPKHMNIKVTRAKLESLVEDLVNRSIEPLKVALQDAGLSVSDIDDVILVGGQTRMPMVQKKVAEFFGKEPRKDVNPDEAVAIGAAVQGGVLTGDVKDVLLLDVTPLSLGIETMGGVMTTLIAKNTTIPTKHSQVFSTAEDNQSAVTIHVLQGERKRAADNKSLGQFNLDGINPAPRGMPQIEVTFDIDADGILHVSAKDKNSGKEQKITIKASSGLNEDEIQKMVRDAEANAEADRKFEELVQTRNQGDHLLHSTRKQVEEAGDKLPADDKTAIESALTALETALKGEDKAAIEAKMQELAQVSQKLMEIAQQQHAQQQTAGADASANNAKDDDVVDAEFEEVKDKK
Sequence of Disintegrin and metalloproteinase domain-containing protein 17 (P78536 whole entry, the tested form may be a part): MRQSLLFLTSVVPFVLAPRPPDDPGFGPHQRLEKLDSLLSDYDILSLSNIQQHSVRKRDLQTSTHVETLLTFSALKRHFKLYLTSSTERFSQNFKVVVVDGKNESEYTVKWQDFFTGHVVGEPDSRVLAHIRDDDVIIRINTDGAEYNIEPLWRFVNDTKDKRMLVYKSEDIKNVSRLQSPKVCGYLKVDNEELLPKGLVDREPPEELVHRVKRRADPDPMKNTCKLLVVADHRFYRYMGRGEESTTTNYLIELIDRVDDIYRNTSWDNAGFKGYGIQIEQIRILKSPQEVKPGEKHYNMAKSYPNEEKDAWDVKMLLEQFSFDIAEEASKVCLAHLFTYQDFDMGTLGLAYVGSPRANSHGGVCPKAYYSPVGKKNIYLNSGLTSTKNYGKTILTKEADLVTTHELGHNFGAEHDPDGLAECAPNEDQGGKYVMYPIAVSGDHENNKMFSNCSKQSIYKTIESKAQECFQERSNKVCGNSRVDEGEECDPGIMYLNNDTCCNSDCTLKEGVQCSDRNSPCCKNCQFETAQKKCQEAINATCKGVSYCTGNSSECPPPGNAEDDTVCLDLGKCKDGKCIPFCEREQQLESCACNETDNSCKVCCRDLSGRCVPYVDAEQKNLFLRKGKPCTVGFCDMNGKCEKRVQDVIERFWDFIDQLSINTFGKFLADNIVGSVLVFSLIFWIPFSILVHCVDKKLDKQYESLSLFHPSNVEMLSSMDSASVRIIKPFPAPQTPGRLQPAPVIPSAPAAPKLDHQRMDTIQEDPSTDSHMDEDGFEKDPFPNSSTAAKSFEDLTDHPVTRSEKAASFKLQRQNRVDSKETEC
Sequence of Induced myeloid leukemia cell differentiation protein Mcl-1 (Q07820 whole entry): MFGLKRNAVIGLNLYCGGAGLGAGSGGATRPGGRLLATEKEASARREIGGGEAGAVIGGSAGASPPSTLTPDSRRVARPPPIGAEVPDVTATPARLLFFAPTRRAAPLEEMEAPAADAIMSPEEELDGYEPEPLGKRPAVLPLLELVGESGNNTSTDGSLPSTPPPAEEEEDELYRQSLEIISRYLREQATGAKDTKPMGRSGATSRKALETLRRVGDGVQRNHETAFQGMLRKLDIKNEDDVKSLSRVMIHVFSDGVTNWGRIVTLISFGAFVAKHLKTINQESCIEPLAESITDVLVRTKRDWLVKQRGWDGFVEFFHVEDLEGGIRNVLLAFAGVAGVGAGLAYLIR

## O=C(Nc1ccc2[nH]ccc2c1)c1cccs1
[1]
  Kd: 12.7 µM (active)

## O=C(O)C[C@@H]1C(=O)O[C@@H]2C(COC(=O)c3cc(O)c(O)c(O)c3)O[C@@H](OC(=O)c3cc(O)c(O)c(O)c3)[C@@H](OC(=O)c3cc(O)c(O)c4c3[C@H]1[C@H](O)C(=O)O4)[C@H]2OC(=O)c1cc(O)c(O)c(O)c1 (stereo partly drawn)
[2]
  IC50: 11.2 µM (active)
[3]
  IC50: 1.52 µM (active)
[4]
  CC50: > 40 µM (active)

## CCCN(C(=O)c1ccccc1Cl)c1nc(-c2ccc(OC)cc2)cs1
[5]
  CC50: 63.2 µM (active)
[6]
  CC50: > 40 µM (active)

## S=C(NCc1ccc(Cl)cc1)Nc1ccncc1
[7]
  IC50: > 125 µM (active)
[8]
  AC50: 1.5 µM (active)
[9]
  AC50: 22.1 µM (active)
[10]
  AC50: > 70 µM (inactive)
[11]
  IC50: > 69.6 µM (inactive)
[12]
  IC50: > 69.6 µM (inactive)

## CCCc1cc(-c2[nH]ncc2-c2ccc(C(=O)OCC)o2)c(O)cc1O
[13]
  EC50: > 35.4 µM (not active)
[14]
  EC50: > 35.4 µM (not active)
[15]
  EC50: 18.5 µM (not active)
[16]
  AC50: 10 µM (active)
[17]
  IC50: 12.8 µM (inactive)
[18]
  EC50: > 29.9 µM (inactive)

## Cc1ccc(C)c(N2CCN(C(=O)C(Cc3ccccc3)n3cccc3)CC2)c1 (stereo not drawn)
[19]
  IC50: > 32 µM (inactive)
[20]
  EC50: > 32 µM (inactive)
[21]
  EC50: > 32 µM (inactive)
[22]
  EC50: 4.27 µM
[23]
  EC50: 10.5 µM
[24]
  IC50: > 64 µM (inactive)

## CN(C)CCCNC(=O)/C(=C\c1ccc(-c2ccc(Br)cc2)o1)NC(=O)c1ccccc1
[25]
  IC50: > 32 µM (inactive)
[26]
  AC50: 7.51 µM (active)
[27]
  AC50: 15.6 µM (active)

## CC1SCC(NC(=O)c2cccc(Cl)c2)CS1 (stereo not drawn)
[28]
  AC50: > 100 µM (inactive)

## O=C(Nc1ncc(-c2ccccc2)o1)c1cc(-c2ccco2)nc2ccccc12
[29]
  IC50: > 56.8 µM (inactive)

## COc1ccc(Cl)cc1Nc1nnc(-c2ccncc2)s1
[30]
  EC50: 73.5 µM (active)
[31]
  IC50: > 66.6 µM (inactive)
[32]
  IC50: 4.83 µM (active)

## COc1ccc(Oc2c(Br)cnn(-c3ccc(C(C)C)cc3)c2=O)cc1
[33]
  IC50: 0.72 µM (active)
